For this assay, the species on record is Homo sapiens. Put plainly: Anticancer activity against human with metastatic pancreatic cancer assessed as median survival. Format: functional.

On to `CCc1c2c(nc3ccc(OC(=O)N4CCC(N5CCCCC5)CC4)cc13)-c1cc3c(c(=O)n1C2)COC(=O)[C@]3(O)CC`, for which the Survival amounted to 10.3 months.
